According to patent US6004952A, “Micacocidin derivatives” (Shinogi & Co., Ltd., priority 1996, dated 1999):
Converted amounts (≈) assume the structure as drawn. Where two headings read alike, the source gives them in different places. One block for each compound: values may come before it.

What was measured:
M. gallisepticum [1] = assay: In vivo evaluation test for M. gallisepticum in chickens (air-sac lesions); conditions: 6 chickens tested
[2] = Cytotoxicity to primary chicken kidney culture cells; type: cell-based; conditions: primary chicken kidney cells
Eimeria tenella = assay: Growth inhibition activities to avian coccidium in primary chicken kidney cells; type: cell-based; conditions: Eimeria tenella; more than 80% of suppression rate regarded as effective; read-out: Effective dose (growth inhibition)
Protocol: The kidneys of SPF new born chicken was sterilely removed, which was treated with trypsin and the resultant primary kidney cells were cultured in 24-well plate. Monolayer culture after cultured for 3 days was treated simultaneously with compounds adjusted to predetermined concentration and sporozoit obtained by artificial excystation, which was cultured a 40° C. Premature and mature schizonts were observed under microscope, and the growth inhibition activities (suppression rate) for each treatment group were calculated at a proportion of the number of schizonts for the sporozoit-inoculated, compound-untreated control group (100%).

Candida albicans = assay: Antifungal activity, micro-liquid dilution method, Candida albicans; type: cell-based, Candida albicans strain Ca-15; conditions: Candida albicans, 24 h, 30° C., read-out: Antifungal activities: IC50
Protocol: (§1) Antifungal activities of the compounds to Candida albicans (strain Ca-15) and Asperilhm fumigatus (strain MA), representative pathogenic fungi, were determined by micro-liquid dilution method using 96-well microplates. A fungal suspension stored under freezing was adjusted to 1×1 O^5 CFU/ml by medium, of which 100 μl portions were charged into each well. The compound of the present invention was dissolved in dimethylsulfoxide (DMSO). Using the resultant solution, 2-fold dilution series were prepared together with the fungal suspension charged into the wells. YNB medium and RPMI medium were used. After cultured for 24 hours at 30° C., evaluation was performed by detecting the turbidity (wave length: 595 nm) using microplate reader.

Aspergillus fumigatus = assay: Antifungal activity, micro-liquid dilution method, Aspergillus fumigatus; type: cell-based, Aspergillus fumigatus strain MA; conditions: Aspergillus fumigatus, 24 h, 30° C., read-out: Antifungal activities: IC50
Protocol: as §1

mice spleen cells [3] = assay: Suppression of reaction of mice spleen cells to lypopolysaccaride (LPS), in vitro (MTT); type: cell-based, BDF1 mice
Protocol: (§2) To each well of 96 well microtiter plate were added 5×10^5 spleen cells of BDF1 mice suspended in 0.1 ml of RPMI 1640 medium supplemented with 10% bovine fetus serum (supplemented with 2 mM sodium hydrogen carbonate, 50 Units/ml of penicillin, 50 μg/ml of streptomycin, and 5×10^-5 M of 2-mercaptoethanol), and then, 5 μg/ml of Concanavalin A (Con A) or 10 μg/ml of lypopolysaccaride (LPS) and various concentrations of test substance, of which final volume was adjusted to 0.2 ml. Test substances were dissolved in dimethylsulfoxide (DMSO), diluted with RPMI 1640 stated above, and added to the wells so that final concentration of the substances becomes less than 10000 ng/ml. The 96-well microtiter plates were cultured at 37° C. for 3 days in an incubator which was maintained at the humidity of 100%, 5% of carbon dioxide and 95% of air. After cultivation is completed, […] of 6 mg/ml solution of MTT {3-(4,5-dimethylthiazol-2yl)-2,5 diphenyltetrazoliumbromide} (Sigma) is added to each well, which is cultured at 37° C. for […] under the same conditions. After cultivation is completed, formazan formed is dissolved by adding 50 μl of a solution of 20% dodecyl sodium sulfonate (SDS) in 0.02N hydrochloric acid and kept standing at 37° C. for 24 hours. The absorbance (OD) of the formazan which was produced in proportion to the number of alive cells, was determined by using immunoreader equipped with 570 nm filter (see The Journal of Immunological Methods, Vol.65, 55-63, 1983).
(§3) Cell growth inhibition rate and IC50 value were calculated according to the correlation between the concentration and the absorbance for each substance.

mice spleen cells [4] = assay: Suppression of reaction of mice spleen cells to Concanavalin A, in vitro (MTT); type: cell-based, BDF1 mice
Protocol: as §2, §3

M. hyopneumoniae = assay: MIC, liquid dilution method, Mycoplasma hyopneumoniae; conditions: Mesomycoplasma hyopneumoniae
M. gallisepticum [5] = assay: MIC, liquid dilution method, Mycoplasma gallisepticum; conditions: Mycoplasmoides gallisepticum
M. pneumoniae = assay: MIC, liquid dilution method, Mycoplasma pneumoniae; conditions: Mycoplasmoides pneumoniae
Mycoplasma = assay: MIC to Mycoplasmas (summary in words); type: cell-based

Structure (SMILES): CN(C)[C@@H]1C(O)=C(C(N)=O)C(=O)[C@@]2(O)C(O)=C3C(=O)c4c(O)ccc(Cl)c4[C@@](C)(O)[C@H]3C[C@@H]12 [CTC, chlortetracycline, reference compound]
air-sac lesions (the number of chickens): (+) slight (M. gallisepticum [1]; 50 mg/kg × 1, orally): 0
air-sac lesions (the number of chickens): (++-+++) moderate to severe (M. gallisepticum [1]; 50 mg/kg × 1, orally): 3
air-sac lesions (the number of chickens): (-) non (M. gallisepticum [1]; 50 mg/kg × 1, orally): 3
number of chickens having lesions (M. gallisepticum [1]; 50 mg/kg × 1, orally): 3
air-sac lesions (the number of chickens): (+) slight (M. gallisepticum [1]; 100 mg/kg × 1, orally): 0
air-sac lesions (the number of chickens): (++-+++) moderate to severe (M. gallisepticum [1]; 100 mg/kg × 1, orally): 1
air-sac lesions (the number of chickens): (-) non (M. gallisepticum [1]; 100 mg/kg × 1, orally): 5
number of chickens having lesions (M. gallisepticum [1]; 100 mg/kg × 1, orally): 1
air-sac lesions (the number of chickens): (+) slight (M. gallisepticum [1]; 200 mg × 1, orally): 0
air-sac lesions (the number of chickens): (++-+++) moderate to severe (M. gallisepticum [1]; 200 mg × 1, orally): 1
air-sac lesions (the number of chickens): (-) non (M. gallisepticum [1]; 200 mg × 1, orally): 5
number of chickens having lesions (M. gallisepticum [1]; 200 mg × 1, orally): 1

IC50 (Candida albicans; RPMI medium): 1.6 µg/mL (≈ 2.83 µM)
IC50 (Candida albicans; YNB medium): 6.3 µg/mL (≈ 11.1 µM)
IC50 (Aspergillus fumigatus; RPMI medium): 0.2 µg/mL (≈ 0.353 µM)
IC50 (Aspergillus fumigatus; YNB medium): 3.2 µg/mL (≈ 5.66 µM)
Structure (SMILES): CCCCCc1cccc(O)c1C1=NC(C2SCC(C(O)C(C)(C)C3=NC(C)(C(=O)O)CS3)N2C)CS1 (stereo not shown) [Compound 2]
MCC [2]: 10 µg/mL
minimal effective concentration (Eimeria tenella): 2.5 µg/mL

Structure (SMILES): CCCCCc1cccc(O)c1C1=NC(C2SCC(C(OC(C)=O)C(C)(C)C3=NC(C)(C(=O)O)CS3)N2C)CS1 (stereo not shown) [Compound 3]
MCC [2]: > 10 µg/mL
minimal effective concentration (Eimeria tenella): 10 µg/mL

Structure (SMILES): CCCCCc1cccc(O)c1C1=NC(C2SCC(C(OCc3ccc(Cl)cc3)C(C)(C)C3=NC(C)(C(=O)O)CS3)N2C)CS1 (stereo not shown) [Compound 6]
suppression of the reaction to LPS of spleen cells (mice spleen cells [3]): suppressed
inhibition at 0.156 µg/mL (mice spleen cells [3]; Mus musculus, 72 h, LPS, 156 ng/ml, read-out: Suppression rate): 17.7%
inhibition at 0.312 µg/mL (mice spleen cells [3]; Mus musculus, 72 h, LPS, 312 ng/ml, read-out: Suppression rate): 24.4%
inhibition at 0.625 µg/mL (mice spleen cells [3]; Mus musculus, 72 h, LPS, 625 ng/ml, read-out: Suppression rate): 84.3%
inhibition at 1.25 µg/mL (mice spleen cells [3]; Mus musculus, 72 h, LPS, 1250 ng/ml, read-out: Suppression rate): 98%
inhibition at 2.5 µg/mL (mice spleen cells [3]; Mus musculus, 72 h, LPS, 2500 ng/ml, read-out: Suppression rate): 105%
IC50 (mice spleen cells [3]; Mus musculus, LPS): 0.368 µg/mL (≈ 0.533 µM)
suppression of the reaction to Con A of spleen cells (mice spleen cells [4]): suppressed
inhibition at 0.156 µg/mL (mice spleen cells [4]; Mus musculus, 72 h, Con A, 156 ng/ml, read-out: Suppression rate): 0%
inhibition at 0.312 µg/mL (mice spleen cells [4]; Mus musculus, 72 h, Con A, 312 ng/ml, read-out: Suppression rate): 16.5%
inhibition at 0.625 µg/mL (mice spleen cells [4]; Mus musculus, 72 h, Con A, 625 ng/ml, read-out: Suppression rate): 87.4%
inhibition at 1.25 µg/mL (mice spleen cells [4]; Mus musculus, 72 h, Con A, 1250 ng/ml, read-out: Suppression rate): 98.6%
inhibition at 2.5 µg/mL (mice spleen cells [4]; Mus musculus, 72 h, Con A, 2500 ng/ml, read-out: Suppression rate): 102%
IC50 (mice spleen cells [4]; Mus musculus, Con A): 0.399 µg/mL (≈ 0.578 µM)

Structure (SMILES): CCCCCc1cccc(OC(C)=O)c1C1=NC(C2SCC(C(OC(C)=O)C(C)(C)C3=NC(C)(C(=O)OC)CS3)N2C)CS1 (stereo not shown) [Compound 10]
MCC [2]: > 10 µg/mL
minimal effective concentration (Eimeria tenella): > 10 µg/mL

Structure (SMILES): CCCCCc1cccc(OCc2ccc(Cl)cc2)c1C1=NC(C2SCC(C(O)C(C)(C)C3=NC(C)(C(=O)OC)CS3)N2C)CS1 (stereo not shown) [Compound 11]
MCC [2]: > 10 µg/mL
minimal effective concentration (Eimeria tenella): 10 µg/mL

Structure (SMILES): CCCCCc1cccc(O)c1C1=NC(C2SCC(C(O)C(C)(C)C3=NC(C)(C(=O)OC)CS3)N2C)CS1 (stereo not shown) [Compound 12]
MIC (M. hyopneumoniae): ≤ 0.025 µg/mL
MIC (M. gallisepticum [5]): 0.2 µg/mL (≈ 0.345 µM)
MCC [2]: > 10 µg/mL
minimal effective concentration (Eimeria tenella): 0.625 µg/mL
MIC (M. pneumoniae): ≤ 0.00625 µg/mL
MICs to Mycoplasmas (Mycoplasma): low MICs

Structure (SMILES): CCCCCc1cccc(O)c1C1=NC(C2SCC(C(OCc3ccc(Cl)cc3)C(C)(C)C3=NC(C)(C(=O)OC)CS3)N2C)CS1 (stereo not shown) [Compound 13]
MCC [2]: > 10 µg/mL
minimal effective concentration (Eimeria tenella): > 10 µg/mL
